Reference: the supplement of paper PMC6045584
± gives the standard deviation of the averaged measurements.

Experiments:
[1] = compound: Cc1nc(Nc2n[nH]c3c2CN(C(=O)N[C@H](CN(C)C)c2ccccc2)C3(C)C)c2sccc2n1; assay: surviving fraction relative to DMSO-only wells; higher = less growth inhibition; conditions: exposure time: 5 days
Summary of the method: (§1)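 At 250–500 cells per well in 384-well plates, log-phase tumour cell lines were seeded and, 24 hours on, exposed continuously for five days to inhibitors at 0.5, 1, 5, 10, 50, 100, 500 and 1000 nM. Viability readout was CellTiter-Glo luminescence, reported as surviving fraction normalised to the median of DMSO-only wells.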

[2] = compound: O=C(NOCC1CC1)c1ccc(F)c(F)c1Nc1ccc(I)cc1Cl; assay: as above; conditions: exposure time: 5 days
Summary of the method: as §1

Test System	surviving fraction ([1]; 0.5 nM)	surviving fraction ([1]; 1 nM)	surviving fraction ([1]; 5 nM)	surviving fraction ([1]; 10 nM)	surviving fraction ([1]; 50 nM)	surviving fraction ([1]; 100 nM)	surviving fraction ([1]; 500 nM)	surviving fraction ([1]; 1000 nM)	surviving fraction ([2]; 0.5 nM)	surviving fraction ([2]; 1 nM)	surviving fraction ([2]; 5 nM)	surviving fraction ([2]; 10 nM)	surviving fraction ([2]; 50 nM)	surviving fraction ([2]; 100 nM)	surviving fraction ([2]; 500 nM)	surviving fraction ([2]; 1000 nM)
MDAMB361 BREAST	1.028 ± 0.0062	1.13 ± 0.074	1.1 ± 0.065	1.02 ± 0.072	0.837 ± 0.016	0.796 ± 0.054	0.5827 ± 0.004	0.238 ± 0.0081	1.06 ± 0.12	0.887 ± 0.067	0.986 ± 0.076	0.973 ± 0.029	0.963 ± 0.083	1.03 ± 0.019	1.05 ± 0.072	0.972 ± 0.12
MDAMB436 BREAST	0.952 ± 0.044	1 ± 0.066	0.932 ± 0.07	0.856 ± 0.071	0.718 ± 0.016	0.61 ± 0.061	0.507 ± 0.025	0.432 ± 0.03	0.904 ± 0.065	0.905 ± 0.024	0.932 ± 0.026	0.883 ± 0.029	0.8685 ± 0.0053	0.959 ± 0.085	0.944 ± 0.023	0.78 ± 0.016
MDAMB453 BREAST	1.14 ± 0.062	1.03 ± 0.037	0.648 ± 0.045	0.598 ± 0.018	0.416 ± 0.038	0.359 ± 0.048	0.23 ± 0.07	0.0803 ± 0.015	0.958 ± 0.033	1.02 ± 0.062	1.02 ± 0.072	0.992 ± 0.046	1.03 ± 0.094	1.05 ± 0.028	1.02 ± 0.06	1.06 ± 0.03
MDAMB468 BREAST	1.054 ± 0.0091	0.914 ± 0.085	0.213 ± 0.02	0.19 ± 0.011	0.096 ± 0.004	0.102 ± 0.0076	0.0473 ± 0.0076	0.0353 ± 0.0015	0.938 ± 0.079	0.983 ± 0.083	1.02 ± 0.029	1 ± 0.11	0.933 ± 0.046	0.998 ± 0.038	0.885 ± 0.029	0.913 ± 0.0098
MFM223 BREAST	1.11 ± 0.074	1.03 ± 0.049	0.827 ± 0.015	0.637 ± 0.051	0.474 ± 0.021	0.349 ± 0.038	0.14 ± 0.013	0.0562 ± 0.005	1.09 ± 0.046	1.06 ± 0.088	1.05 ± 0.059	1.07 ± 0.089	1.14 ± 0.037	1.12 ± 0.057	1.012 ± 0.0095	1.04 ± 0.03
MG63 BONE	0.921 ± 0.038	0.805 ± 0.025	0.468 ± 0.0074	0.336 ± 0.024	0.257 ± 0.016	0.275 ± 0.0096	0.228 ± 0.015	0.227 ± 0.013	0.9313 ± 0.0065	0.969 ± 0.018	0.976 ± 0.016	0.997 ± 0.017	0.935 ± 0.0096	0.957 ± 0.011	0.85 ± 0.018	0.859 ± 0.022
MHM BONE	0.953 ± 0.02	0.935 ± 0.016	0.924 ± 0.034	0.906 ± 0.015	0.692 ± 0.03	0.664 ± 0.022	0.559 ± 0.023	0.535 ± 0.014	0.947 ± 0.024	0.906 ± 0.095	0.992 ± 0.013	1.01 ± 0.015	0.974 ± 0.028	0.971 ± 0.048	0.926 ± 0.022	0.931 ± 0.032
NCIH441 LUNG	0.955 ± 0.014	0.938 ± 0.1	0.637 ± 0.057	0.632 ± 0.0076	0.463 ± 0.026	0.452 ± 0.04	0.379 ± 0.048	0.329 ± 0.018	0.939 ± 0.093	0.968 ± 0.084	0.945 ± 0.026	0.984 ± 0.041	0.909 ± 0.013	0.846 ± 0.031	0.722 ± 0.023	0.757 ± 0.053
NOS1 BONE	0.922 ± 0.046	0.847 ± 0.078	0.695 ± 0.051	0.657 ± 0.073	0.589 ± 0.062	0.559 ± 0.062	0.272 ± 0.043	0.134 ± 0.0068	1.15 ± 0.08	1.15 ± 0.075	1.16 ± 0.057	1.16 ± 0.062	0.949 ± 0.065	0.952 ± 0.1	0.863 ± 0.054	0.773 ± 0.016
